# Test results taken from patent publication US10640534B2 (Agios Pharmaceuticals, Inc., priority 2012, dated 2020).
# Tested on: U87MG cells
# Experiment: Cellular assay, inhibition of 2-HG production in U87MG cells
# Assay type: cell-based
# Settings: Homo sapiens, U-87 MG, 48 h
# Summary of the method: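 HT1080 or U87MG cells (U87MG kept with 500 ug/mL G418) seeded at 5000 cells/well and treated with compound at 0.2% final DMSO. Incubated 48 h at 37 °C. 2-HG inhibition determined by LC-MS. Viability read by CellTiter-Glo luminescence at 72 h post-dose.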
row,Structure (SMILES),IC50 [µM]
1,"N#Cc1ccnc(N2C(=O)OCC[C@H]2C(=O)N(c2cc(F)cc(F)c2)[C@H](C(=O)NC2CCC(F)(F)CC2)c2ccccc2Cl)n1 [Compound 144, (S)—N—((S)-1-(2-Chlorophenyl)-2-((4,4-difluorocyclohexyl)amino)-2-oxoethyl)-3-(4-cyanopyrimidin-2-yl)-N-(3,5-difluorophenyl)-2-oxo-1,3-oxazinane-4-carboxamide]",< 0.1
2,"C[S@+]([O-])c1cc(F)cc(N(C(=O)[C@@H]2CCC(=O)N2c2cc(C#N)ccn2)[C@H](C(=O)NC2CC(F)(F)C2)c2ccccc2Cl)c1 [Compound 190, (S)—N—((S)-1-(2-Chlorophenyl)-2-(3,3-difluorocyclobutylamino)-2-oxoethyl)-1-(4-cyanopyridin-2-yl)-N-(3-fluoro-5-((S)-methylsulfinyl)phenyl)-5-oxopyrrolidine-2-carboxamide]",< 0.1
3,"N#Cc1cc(F)cc(N(C(=O)[C@@H]2CCC(=O)N2c2cc(C#N)ccn2)[C@H](C(=O)NC2CC(F)(F)C2)c2ccccc2Cl)c1 [Compound 177, (S)—N—((S)-1-(2-Chlorophenyl)-2-(3,3-difluorocyclobutylamino)-2-oxoethyl)-N-(3-cyano-5-fluorophenyl)-1-(4-cyanopyridin-2-yl)-5-oxopyrrolidine-2-carboxamide]",< 0.1
4,"O=C(NC1CC(F)(F)C1)[C@H](c1ccccc1Cl)N(C(=O)[C@@H]1COC(=O)N1c1ncccn1)c1cccc(F)c1 [Compound 9, (S)—N—((S)-1-(2-chloro-phenyl)-2-(3,3-difluorocyclo-butylamino)-2-oxoethyl)-N-(3-fluorophenyl)-2-oxo-3-(pyrimidin-2-yl)oxazolidine-4-carboxamide]",< 0.1
5,"CC(C)(O)c1cc(F)cc(N(C(=O)[C@@H]2CCC(=O)N2c2cc(C#N)ccn2)[C@H](C(=O)NC2CC(F)(F)C2)c2ccccc2Cl)c1 [Compound 150, (S)—N—((S)-1-(2-Chlorophenyl)-2-(3,3-difluorocyclobutylamino)-2-oxoethyl)-1-(4-cyanopyridin-2-yl)-N-(3-fluoro-5-(2-hydroxypropan-2-yl)phenyl)-5-oxopyrrolidine-2-carboxamide]",< 0.1
6,"N#Cc1ccnc(N2C(=O)[C@H](O)C[C@H]2C(=O)N(c2cccc(F)c2)[C@H](C(=O)NC2CCC(F)(F)CC2)c2ccccc2Cl)c1 [Compound 121, (2S,4R)—N—((S)-1-(2-Chlorophenyl)-2-((4,4-difluorocyclohexyl)amino)-2-oxoethyl)-1-(4-cyanopyridin-2-yl)-N-(3-fluorophenyl)-4-hydroxy-5-oxopyrrolidine-2-carboxamide]",< 0.1
7,"N#Cc1ccnc(N2C(=O)[C@H](O)C[C@H]2C(=O)N(c2cc(F)cc(F)c2)[C@@H](C(=O)NC2CC(F)(F)C2)c2ccccc2Cl)c1 [Compound 114, (2S,4R)—N—((R)-1-(2-Chlorophenyl)-2-((3,3-difluorocyclobutyl)amino)-2-oxoethyl)-1-(4-cyanopyridin-2-yl)-N-(3,5-difluorophenyl)-4-hydroxy-5-oxopyrrolidine-2-carboxamide]",< 0.1
8,"N#Cc1cccc(N(C(=O)[C@@H]2CCC(=O)N2c2cc(C#N)ccn2)[C@H](C(=O)NC2CCC(F)(F)CC2)c2ccccc2Cl)c1 [Compound 166, (S)—N—((S)-1-(2-Chlorophenyl)-2-((4,4-difluorocyclohexyl)amino)-2-oxoethyl)-N-(3-cyanophenyl)-1-(4-cyanopyridin-2-yl)-5-oxopyrrolidine-2-carboxamide]",< 0.1
9,"CC(C)(C)OC(=O)N1CC(=O)N(c2cc(C#N)ccn2)[C@H](C(=O)N(c2cccc(F)c2)[C@H](C(=O)NC2CC(F)(F)C2)c2ccccc2Cl)C1 [Compound 89, (3S)-tert-Butyl 3-((1-(2-chlorophenyl)-2-((3,3-difluorocyclobutyl)amino)-2-oxoethyl)(3-fluorophenyl)carbamoyl)-4-(4-cyanopyridin-2-yl)-5-oxopiperazine-1-carboxylate]",< 0.1
10,"CCOC(=O)CN1C[C@@H](C(=O)N(c2cccc(F)c2)C(C(=O)NC2CC(F)(F)C2)c2ccccc2Cl)N(c2cc(C#N)ccn2)C1=O (stereo partly drawn) [Compound 94, Ethyl 2-((4S)-4-((1-(2-chlorophenyl)-2-((3,3-difluorocyclobutyl)amino)-2-oxoethyl)(3-fluorophenyl)carbamoyl)-3-(4-cyanopyridin-2-yl)-2-oxoimidazolidin-1-yl)acetate]",< 0.1
11,"N#Cc1ccnc(N2C(=O)CN(C3CC3)C[C@H]2C(=O)N(c2cc(F)cc(F)c2)[C@H](C(=O)NC2CC(F)(F)C2)c2ccccc2Cl)c1 [Compound 106, (S)—N—((S)-1-(2-chlorophenyl)-2-((3,3-difluorocyclobutyl)amino)-2-oxoethyl)-1-(4-cyanopyridin-2-yl)-4-cyclopropyl-N-(3,5-difluorophenyl)-6-oxopiperazine-2-carboxamide]",< 0.1
12,"N#Cc1ccnc(N2C(=O)OC[C@H]2C(=O)N(c2cncc(F)c2)[C@H](C(=O)NC2CC(F)(F)C2)c2ccccc2Cl)c1 [Compound 135, (S)—N—((S)-1-(2-Chlorophenyl)-2-((3,3-difluorocyclobutyl)amino)-2-oxoethyl)-3-(4-cyanopyridin-2-yl)-N-(5-fluoropyridin-3-yl)-2-oxooxazolidine-4-carboxamide]",< 0.1
13,CCOC(=O)CN1CC(=O)N(c2cc(C#N)ccn2)[C@H](C(=O)N(c2cc(F)cc(F)c2)[C@H](C(=O)NC2CC(F)(F)C2)c2ccccc2Cl)C1 [Compound 104],< 0.1
14,"N#Cc1ccnc(N2C(=O)NC[C@H]2C(=O)N(c2cccc(F)c2)[C@H](C(=O)NC2CC(F)(F)C2)c2ccccc2Cl)c1 [Compound 80, (S)—N—((S)-1-(2-chlorophenyl)-2-(3,3-difluorocyclobutylamino)-2-oxoethyl)-3-(4-cyanopyridin-2-yl)-N-(3-fluorophenyl)-2-oxoimidazolidine-4-carboxamide]",< 0.1
15,"N#Cc1ccnc(N2C(=O)CC[C@H]2C(=O)N(c2cc(F)ccc2F)[C@H](C(=O)NC2CC(F)(F)C2)c2ccccc2Cl)c1 [Compound 197, (S)—N—((S)-1-(2-Chlorophenyl)-2-((3,3-difluorocyclobutyl)amino)-2-oxoethyl)-1-(4-cyanopyridin-2-yl)-N-(2,5-difluorophenyl)-5-oxopyrrolidine-2-carboxamide]",< 0.1
16,"N#Cc1ccnc(N2C(=O)CC[C@H]2C(=O)N(c2ccc3[nH]ncc3c2)[C@H](C(=O)NC2CCC(F)(F)CC2)c2ccccc2Cl)c1 [Compound 203, (S)—N—((S)-1-(2-Chlorophenyl)-2-((4,4-difluorocyclohexyl)amino)-2-oxoethyl)-1-(4-cyanopyridin-2-yl)-N-(1H-indazol-5-yl)-5-oxopyrrolidine-2-carboxamide]",< 0.1
17,"CN1C[C@@H](C(=O)N(c2cccc(F)c2)C(C(=O)NC2CC(F)(F)C2)c2ccccc2Cl)N(c2cc(C#N)ccn2)C1=O (stereo partly drawn) [Compound 79, (4S)—N-(1-(2-chlorophenyl)-2-((3,3-difluorocyclobutyl)amino)-2-oxoethyl)-3-(4-cyanopyridin-2-yl)-N-(3-fluorophenyl)-1-methyl-2-oxoimidazolidine-4-carboxamide]",< 0.1

# The remaining lines, values ahead:
row,IC50 [µM],Structure (SMILES)
1,< 0.1,"COc1cccc(N(C(=O)[C@@H]2CCC(=O)N2c2cc(C#N)ccn2)[C@H](C(=O)NC2CC(F)(F)C2)c2ccccc2Cl)c1 [Compound 129, (S)—N—((S)-1-(2C)-2-((3,3-difluorocyclobutyl)amino)-2-oxoethyl)-1-(4-cyanopyridin-2-yl)-N-(3-methoxyphenyl)-5-oxopyrrolidine-2-carboxamide]"
2,< 0.1,"COc1cccc(N(C(=O)[C@@H]2CCC(=O)N2c2nccc(C#N)n2)[C@H](C(=O)NC2CC(F)(F)C2)c2ccccc2Cl)c1 [Compound 164, (S)—N—((S)-1-(2-Chlorophenyl)-2-(3,3-difluorocyclobutyl-amino)-2-oxoethyl)-1-(4-cyanopyrimidin-2-yl)-N-(3-methoxyphenyl)-5-oxopyrrolidine-2-carboxamide]"
3,< 0.1,"N#Cc1ccnc(N2C(=O)CC[C@H]2C(=O)N(c2ccc3[nH]ccc3c2)[C@H](C(=O)NC2CC(F)(F)C2)c2ccccc2Cl)c1 [Compound 206, (S)—N—((S)-1-(2-Chlorophenyl)-2-((3,3-difluorocyclobutyl)amino)-2-oxoethyl)-1-(4-cyanopyridin-2-yl)-N-(1H-indol-5-yl)-5-oxopyrrolidine-2-carboxamide]"
4,< 0.1,"N#Cc1ccnc(N2C(=O)CNC[C@H]2C(=O)N(c2cc(F)cc(F)c2)[C@H](C(=O)NC2CC(F)(F)C2)c2ccccc2Cl)n1 [Compound 99, (S)—N—((S)-1-(2-chlorophenyl)-2-((3,3-difluorocyclobutyl)amino)-2-oxoethyl)-1-(4-cyanopyrimidin-2-yl)-N-(3,5-difluorophenyl)-6-oxopiperazine-2-carboxamide]"
5,< 0.1,"N#Cc1ccnc(N2C(=O)CC[C@H]2C(=O)N(c2cccc(F)c2)[C@H](C(=O)NC2CC(F)(F)C2)c2ccccc2F)c1 [Compound 149, (S)-1-(4-Cyanopyridin-2-yl)-N—((S)-2-((3,3-difluorocyclobutyl)amino)-1-(2-fluorophenyl)-2-oxoethyl)-N-(3-fluorophenyl)-5-oxopyrrolidine-2-carboxamide]"
6,< 0.1,"N#Cc1ccnc(N2C(=O)CC[C@H]2C(=O)N(c2cccc(F)c2)[C@H](C(=O)NC2CCC(F)(F)CC2)c2ccccc2Cl)n1 [Compound 85, (S)—N—((S)-1-(2-Chlorophenyl)-2-((4,4-difluorocyclohexyl)amino)-2-oxoethyl)-1-(4-cyanopyrimidin-2-yl)-N-(3-fluorophenyl)-5-oxopyrrolidine-2-carboxamide]"
7,0.1 to 0.5,Cc1ccc(N2C(=O)CC[C@H]2C(=O)N(c2cccc(F)c2)[C@H](C(=O)NC2CC(F)(F)C2)c2ccccc2Cl)nc1 [Compound 21]
8,0.1 to 0.5,"N#Cc1ccnc(N2C(=O)[C@H](O)C[C@H]2C(=O)N(c2cccc(F)c2)[C@H](C(=O)NC2CC(F)(F)C2)c2ccccc2Cl)n1 [Compound 120, (2S,4R)—N—((S)-1-(2-Chlorophenyl)-2-((3,3-difluorocyclobutyl)amino)-2-oxoethyl)-1-(4-cyanopyrimidin-2-yl)-N-(3-fluorophenyl)-4-hydroxy-5-oxopyrrolidine-2-carboxamide]"
